Key:
human CD14+ monocytes = assay: NAT_29 dose response, IL-10 secretion from monocytes co-stimulated with LPS (AlphaLISA); type: cell-based; details: LPS 100 ng/ml, 24 hours
Procedure: (§1) To investigate the IL-10 inducing/enhancing capacity of NAT_29, in vitro IL-10 secretion of human immune cells in the presence of different doses of NAT_29 was tested. Briefly, human CD14+ monocytes were isolated from peripheral blood mononuclear cells (PBMCs) from healthy human volunteers by density gradient centrifugation using SepMate™-50 IVD tubes (Stemcell, Ref. 85460). The obtained PBMCs were washed thrice with Dulbeccos's phosphate buffered saline (PBS, Sigma, D88537) and lysed 10 min at room temperature in Red blood Lysis buffer 1X (Miltenyi Biotec, 130-094-183). Cells were washed with MACS buffer (Miltenyi Biotec, 130-091-221) and counted using the trypan blue dye exclusion method. CD14+monocytes were sorted using anti-human CD14 Microbeads (Miltenyi Biotec, 130-050-201) as per manufacturer's protocol. Positive CD14+ fractions were collected and seeded at 2×10^4 cells per well in 384 well plates in IMDM medium (Gibco, 12440-046) supplemented with 10% FBS and 1X antibiotic solution.
(§2) […] IL-10 secretion were measured at 24 hours by AlphaLISA® on cell supernatants according to the supplier's protocol and read on an Envision plate reader (Perkin Elmer).

human ileal explants = assay: Ex vivo human ileal explants in Ussing chambers inflamed with E. coli LF82 (TER, histology, IL-8 ELISA); type: cell-based
Procedure: Next, the role of NAT_29 was evaluated in the context of inflammatory diseases using ex vivo experiments performed on human ileal resections. To this end, explants were mounted on Ussing Chambers in order to separate the apical side from the basolateral side as naturally occurs in the gut. Tissues were pre-incubated 1 h with NAT_29 (SEQ ID NO: 1) before inflammation was triggered with live Escherichia coli LF82 during 4 hours.
Preparation of Bacteria: The day before the assay, LB broth (Sigma Aldrich, L3522) was inoculated, using sterile loops, with bacteria from a glycerol stock (E. coli LF82-gfp) maintained at −80° C. Tubes were incubated overnight at 37° C. without shaking. The next day, optical density of the bacterial suspensions was read at 600 nm using a spectrophotometer (Amersham Ultrospec 10) allowing estimation of the bacterial cell density and bacteria were added to human explants as explained below.
Human tissue samples were obtained from patients undergoing surgery with the patients' agreement. Samples were taken from macroscopically unaffected area as identified by the surgeon. […]
Three parameters were assessed to evaluate the anti-inflammatory potential of NAT_29 in the ex vivo model: • 1) Transepithelial Electrical Resistance (TER) which is a measure of integrity/tightness of the human explants; • 2) histology; • 3) IL-8 secretion (quantified by Elisa).
TER assays are well-known methods for measuring effects on the structural and functional integrity of an epithelial cell layer, which are described, for example, in: Srinivasan et al., 2015, J Lab Autom, 20:107-126. Accordingly, the integrity/tightness of the human explants during the incubation was evaluated through Transepithelial Electrical Resistance (TER) measurement using Millicell-ERS (Electrical Resistance System) Voltohmmeter (Millipore, MERS00002). […]
IL-8 levels were measured by ELISA (BD Biosciences, 555244). […] Absorbances were measured using a microplate reader (BioTek, Synergy MX, model SMATLD) at 490 nm. […]

[1] = test system: monocyte-derived dendritic cells (MoDCs); assay: NAT_29 dose response, IL-10 secretion from MoDCs co-stimulated with LPS (AlphaLISA); type: cell-based, human; details: 0.1 to 1000 nM; LPS 100 ng/ml; 24 hours
Procedure: as §1
Monocyte-derived dendritic cells (MoDCs) were derived from the differentiation of CD14+ cells, obtained after the selective sorting. […]
as §2

monocytes = assay: Kinetics of IL-10, TNF-α and IL-6 secretion from monocytes co-stimulated with LPS (AlphaLISA); type: cell-based, human; details: 1 μM, LPS 10 ng/ml
Procedure: To confirm the anti-inflammatory potential of NAT_29 (SEQ ID NO: 1), a kinetic study was performed to test the concomitant secretion of IL-10 and the major pro-inflammatory cytokines TNF-α and IL-6. To this end, monocytes were obtained as described in Example 3 and stimulated with 1 μM NAT_29 polypeptide (SEQ ID NO: 1), co-stimulated with 10 ng/ml of LPS from E. coli O111: B4 (InvivoGen, tlrl-eblps) and placed in humidified CO2 incubator at 5% CO2/37° C. for 72 h. IL-10, TNF-α and IL-6 secretion were measured at 5, 10, 24, 48 and 72 hours by AlphaLISA® on cell supernatants according to the supplier's protocol (Perkin, ref. AL218F, AL208F, AL223F) and read on an Envision plate reader (Perkin Elmer).

KKGSRSCFFIYLDRGTKKGSRSCFFYLP (NAT_29) [28-amino-acid fragment of microbiota protein ID3166]
IL-10 secretion from monocytes (human CD14+ monocytes; 0.1 to 1000 nM): highest IL-10 levels were measured in both cell types at the highest concentration of NAT_29 tested
sensitivity of monocytes versus MoDCs to the action of NAT_29 (human CD14+ monocytes; IL-10 secretion): monocytes appeared to be more sensitive than MoDCs
IL-8 secretion (ELISA, basolateral side) (human ileal explants; 1000 or 10 nM, LF82 4 h (LF82 alone 4-fold increase)): completely abolished IL-8 secretion
TER reduction (human ileal explants; pre-incubation 1 h at 1000 nM or 10 nM, then E. coli LF82 4 hours, LF82 alone 52%, control without LF82 24%): 32%
histology (H&E staining) of explants (human ileal explants; pre-incubation with 1000 nM, LF82 4 h): protective effect against LF82-induced degradation
IL-10 secretion from MoDCs [1]: highest IL-10 levels were measured in both cell types at the highest concentration of NAT_29 tested
IL-6 secretion (monocytes; 5, 10, 24, 48 and 72 hours): no significant secretion
TNF-a secretion (monocytes; 5, 10, 24, 48 and 72 hours): no significant secretion
IL-10 secretion, fold in respect to LPS, peak (monocytes; peak at 24 h, mean of six monocyte donors): 2 fold
IL-10 secretion, fold in respect to LPS, after peak (monocytes; until the end of the experiment (72 h)): 1,5 Fold
